≈ marks a conversion by molar mass, not a printed value. Where “and” joins values, the source holds several entries; their conditions need not be identical. Equal entries are not always repeated. Blank lines part the entries; values can stand above or below the molecule they belong to.
Tests used:
Assay in all cases: ≥ marks a high value that may be exact or a test limit, other limits are often not marked, values filed in µg/mL are converted to µM
[1] = tested on: Microbacterium maritypicum CIP 105733T
[2] = tested on: Vibrio aestuarianus CIP 109791
[3] = tested on: Staphylococcus aureus SG511
[4] = tested on: Corynebacterium stationis CIP 101282
Bacillus megaterium IBMC = tested on: Bacillus megaterium IBMC
Escherichia coli SBS 363 = tested on: Escherichia coli SBS 363
[5] = tested on: Vibrio coralliilyticus YB1 CIP 107925
Fusarium oxysporum = tested on: Fusarium oxysporum
Micrococcus luteus A270 = tested on: Micrococcus luteus A270
[6] = tested on: Vibrio splendidus CIP 107715
[7] = tested on: Escherichia coli IFO 12734
[8] = tested on: Bacillus subtilis IFO 3143
[9] = tested on: Pseudomonas aeruginosa IFO 12582
[10] = tested on: Staphylococcus aureus IFO 12732
Candida albicans = tested on: Candida albicans
[11] = tested on: Streptococcus pyogenes ATCC 19615
[12] = tested on: Bacillus cereus ATCC 9193
[13] = tested on: Staphylococcus aureus ATCC 29213
Saccharomyces cerevisiae = tested on: Saccharomyces cerevisiae
[14] = tested on: Pseudomonas aeruginosa ATCC 27853
[15] = tested on: Campylobacter jejuni ATCC 33291
[16] = tested on: Salmonella enterica subsp. enterica serovar Typhimurium ATCC 14028
[17] = tested on: Clostridium perfringens ATCC 12915
[18] = tested on: Bacillus subtilis KCTC 1918
[19] = tested on: Candida albicans KCTC 7121
[20] = tested on: Escherichia coli KCTC 1682
Proteus vulgaris = tested on: Proteus vulgaris
[21] = tested on: Aspergillus flavus KCTC 7375
[22] = tested on: Bacillus megaterium KCTC 1096
[23] = tested on: Trichosporon beigelii KCTC 7251
[24] = tested on: Staphylococcus aureus KCTC 1621
[25] = tested on: Fusarium oxysporum KCTC 6084
[26] = tested on: Pseudomonas aeruginosa KCTC 1637

MIC [1]: 20 µM (≈ 89.8 µg/mL)
MIC [2]: 20 µM (≈ 89.8 µg/mL)
MIC [3]: 5 µM (≈ 22.5 µg/mL)
MIC [4]: 10 µM (≈ 44.9 µg/mL)
MIC (Bacillus megaterium IBMC): 20 µM (≈ 89.8 µg/mL)
MIC (Escherichia coli SBS 363): 10 µM (≈ 44.9 µg/mL)
MIC [5]: 20 µM (≈ 89.8 µg/mL)
MIC (Fusarium oxysporum): 1.25 µM (≈ 5.61 µg/mL)
MIC (Micrococcus luteus A270): 1.25 µM (≈ 5.61 µg/mL)
MIC [6]: 20 µM (≈ 89.8 µg/mL)
Compound: CC[C@H](C)[C@@H]1NC(=O)CNC(=O)[C@H](CCCCN)NC(=O)[C@H](CCCCN)NC(=O)[C@H](CC(=O)O)NC(=O)[C@@H]2CSSC[C@@H]3NC(=O)[C@H](CO)NC(=O)[C@H](Cc4ccc(O)cc4)NC(=O)[C@H](CO)NC(=O)[C@H](CSSC[C@H](NC(=O)[C@H](Cc4ccccc4)NC(=O)[C@H]([C@@H](C)O)NC(=O)[C@H](CCCCN)NC(=O)CNC(=O)[C@H](CCCN=C(N)N)NC(=O)[C@H](CC(C)C)NC(=O)[C@H](CC(=O)O)NC(=O)[C@H](C)NC(=O)[C@@H](NC(=O)[C@H](C)N)CSSC[C@@H](C(=O)N[C@@H](CCCN=C(N)N)C(N)=O)NC(=O)CNC3=O)C(=O)N[C@@H](CCCN=C(N)N)C(=O)N[C@@H](CC(C)C)C(=O)N[C@@H](Cc3ccccc3)C(=O)N[C@@H](CCCCN)C(=O)N[C@@H](CO)C(=O)N[C@@H](Cc3ccc(O)cc3)C(=O)N2)NC(=O)[C@H](CCCCN)NC(=O)[C@H](CC(=O)O)NC(=O)[C@H](CCCN=C(N)N)NC(=O)[C@H](CCSC)NC(=O)[C@H](CC(C)C)NC(=O)[C@H](CCCN=C(N)N)NC(=O)CNC(=O)[C@H](CCCN=C(N)N)NC1=O [ACADLRGKTFCRLFKSYCDKKGIRGRLMRDKCSYSCGCR]

MIC [7]: 0.723 µM (≈ 2 µg/mL)
MIC [8]: 0.723 µM (≈ 2 µg/mL)
MIC [9]: 1.45 µM (≈ 4 µg/mL)
MIC [10]: 0.723 µM (≈ 2 µg/mL)
Compound: CC(C)C[C@H](NC(=O)[C@H](Cc1ccc(O)cc1)NC(=O)[C@H](Cc1cnc[nH]1)NC(=O)[C@@H](NC(=O)[C@H](CC(C)C)NC(=O)[C@H](C)NC(=O)[C@H](C)NC(=O)[C@H](CCCCN)NC(=O)[C@H](C)NC(=O)[C@@H](NC(=O)[C@H](Cc1cnc[nH]1)NC(=O)[C@H](CCCCN)NC(=O)[C@H](C)NC(=O)[C@@H](NC(=O)[C@H](Cc1cnc[nH]1)NC(=O)[C@H](C)NC(=O)[C@H](C)NC(=O)[C@H](CCCCN)NC(=O)[C@H](CCCCN)NC(=O)[C@H](Cc1ccccc1)NC(=O)[C@H](Cc1ccccc1)NC(=O)[C@H](CO)NC(=O)[C@H](C)NC(=O)[C@H](Cc1c[nH]c2ccccc12)NC(=O)[C@H](C)N)C(C)C)C(C)C)[C@@H](C)O)C(=O)O [AWASFFKKAAHVAKHVAKAALTHYL]

MIC (Candida albicans): 1.87 µM (≈ 7.99 µg/mL)
MIC [11]: 14.9 µM (≈ 63.9 µg/mL)
MIC [12]: 29.9 µM (≈ 128 µg/mL)
MIC [13]: > 29.9 µM and 59.7 µM
MIC (Saccharomyces cerevisiae): 1.87 µM (≈ 7.99 µg/mL)
MIC [14]: > 29.9 µM
MIC [15]: 14.9 µM (≈ 63.9 µg/mL)
MIC [16]: > 29.9 µM and 59.7 µM
MIC [17]: 1.87 µM (≈ 7.99 µg/mL)
Compound: CC[C@H](C)[C@@H]1NC(=O)[C@H](CC(=O)O)NC(=O)[C@H](C(C)C)NC(=O)[C@H](CO)NC(=O)[C@@H]2CCCN2C(=O)[C@H](C)NC(=O)[C@H](CCCN=C(N)N)NC(=O)[C@@H]2CSSC[C@@H](C(=O)N[C@@H](CCCCN)C(=O)N[C@@H](Cc3c[nH]c4ccccc34)C(=O)N[C@@H](C)C(=O)N3CCC[C@H]3C(=O)N[C@@H](CO)C(=O)N[C@@H](CO)C(=O)O)NC(=O)[C@@H]3CSSC[C@H](NC(=O)[C@H](C)NC(=O)[C@H](CC(C)C)NC(=O)[C@@H](NC(=O)[C@@H](N)CC(=O)O)[C@@H](C)O)C(=O)N[C@@H](CCCN=C(N)N)C(=O)N[C@@H](CCC(N)=O)C(=O)N[C@@H](CO)C(=O)N[C@@H](Cc4cnc[nH]4)C(=O)NCC(=O)N[C@@H](CO)C(=O)N[C@@H](CSSC[C@H](NC(=O)[C@H]([C@@H](C)O)NC(=O)CNC1=O)C(=O)N[C@@H](CCCN=C(N)N)C(=O)NCC(=O)NCC(=O)N[C@@H](CCCCN)C(=O)N[C@@H](CC(C)C)C(=O)N[C@@H](CCCCN)C(=O)N3)C(=O)N[C@@H](CO)C(=O)N[C@@H](Cc1ccccc1)C(=O)N[C@@H](C(C)C)C(=O)N[C@@H](C)C(=O)N2 [DTLACRQSHGSCSFVACRAPSVDIGTCRGGKLKCCKWAPSS]

MIC [18]: 1.56 µM (≈ 2.85 µg/mL)
MIC [19]: ≥ 100 µM
MIC [20]: 6.25 µM (≈ 11.4 µg/mL)
MIC (Proteus vulgaris): 3.12 µM (≈ 5.7 µg/mL)
MIC [21]: ≥ 100 µM
MIC [22]: 3.12 µM (≈ 5.7 µg/mL)
MIC [23]: ≥ 100 µM
MIC [24]: 6.25 µM (≈ 11.4 µg/mL)
MIC [25]: ≥ 100 µM
MIC [26]: 6.25 µM (≈ 11.4 µg/mL)
Compound: CC[C@H](C)[C@H](NC(=O)[C@H](CCCCN)NC(=O)[C@H](CCCCN)NC(=O)[C@H](Cc1ccccc1)NC(=O)[C@H](CC(C)C)NC(=O)[C@H](CCCCN)NC(=O)[C@H](Cc1c[nH]c2ccccc12)NC(=O)[C@@H](N)CCCCN)C(=O)N1CCC[C@H]1C(=O)N[C@@H](CCCCN)C(=O)N[C@@H](Cc1ccccc1)C(=O)N[C@@H](CC(C)C)C(=O)N[C@@H](Cc1cnc[nH]1)C(=O)N[C@@H](CC(C)C)C(N)=O [KWKLFKKIPKFLHL]
